{"source": "PubChem BioAssay (NCI)", "experiment_in_all_cases": "NCI anticancer screen, dose series, 48 h", "key": {"SK-MEL-5 melanoma": {"system": "SK-MEL-5 melanoma"}, "SF-268 CNS": {"system": "SF-268 CNS"}, "SK-MEL-28 melanoma": {"system": "SK-MEL-28 melanoma"}, "M14 melanoma": {"system": "M14 melanoma"}, "IGROV1 ovarian": {"system": "IGROV1 ovarian"}, "OVCAR-5 ovarian": {"system": "OVCAR-5 ovarian"}, "SN12C renal": {"system": "SN12C renal"}, "U251 CNS": {"system": "U251 CNS"}, "OVCAR-3 ovarian": {"system": "OVCAR-3 ovarian"}, "SNB-19 CNS": {"system": "SNB-19 CNS"}, "PC-3 prostate": {"system": "PC-3 prostate"}, "UACC-257 melanoma": {"system": "UACC-257 melanoma"}, "A498 renal": {"system": "A498 renal"}, "SNB-75 CNS": {"system": "SNB-75 CNS"}, "DU-145 prostate": {"system": "DU-145 prostate"}, "SK-OV-3 ovarian": {"system": "SK-OV-3 ovarian"}, "BT-549 breast": {"system": "BT-549 breast"}, "NCI/ADR-RES ovarian": {"system": "NCI/ADR-RES ovarian"}, "OVCAR-4 ovarian": {"system": "OVCAR-4 ovarian"}, "MCF7 breast": {"system": "MCF7 breast"}, "UACC-62 melanoma": {"system": "UACC-62 melanoma"}, "TK-10 renal": {"system": "TK-10 renal"}, "OVCAR-8 ovarian": {"system": "OVCAR-8 ovarian"}, "NCI-H226 lung": {"system": "NCI-H226 lung"}, "HS 578T breast": {"system": "HS 578T breast"}, "A549 NSCLC": {"system": "A549 NSCLC"}, "MALME-3M melanoma": {"system": "MALME-3M melanoma"}}, "note": "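A five-concentration, 48-hour dose response in 96-well plates underlies each endpoint, interpolated linearly between surrounding concentrations. GI50 is the concentration that inhibits growth by half. TGI: total growth inhibition.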"}
{"smiles": "Cc1ccc(NCCN(C)CC(C)O)c2c(=O)c3ccc(Cl)cc3sc12", "note": "(centres undefined)", "values": [{"measurement": "GI50", "setting": "SK-MEL-5 melanoma", "value": 1.65, "unit": "µM"}, {"measurement": "TGI", "setting": "SK-MEL-5 melanoma", "value": 3.01, "unit": "µM"}, {"measurement": "GI50", "setting": "SF-268 CNS", "value": 6.47, "unit": "µM"}, {"measurement": "TGI", "setting": "SF-268 CNS", "value": "> 100", "unit": "µM"}, {"measurement": "GI50", "setting": "SK-MEL-28 melanoma", "value": 1.75, "unit": "µM"}, {"measurement": "TGI", "setting": "SK-MEL-28 melanoma", "value": 3.31, "unit": "µM"}, {"measurement": "GI50", "setting": "M14 melanoma", "value": 1.77, "unit": "µM"}, {"measurement": "TGI", "setting": "M14 melanoma", "value": 3.38, "unit": "µM"}, {"measurement": "GI50", "setting": "IGROV1 ovarian", "value": 4.79, "unit": "µM"}, {"measurement": "TGI", "setting": "IGROV1 ovarian", "value": "> 100", "unit": "µM"}, {"measurement": "GI50", "setting": "OVCAR-5 ovarian", "value": 3, "unit": "µM"}, {"measurement": "TGI", "setting": "OVCAR-5 ovarian", "value": "> 100", "unit": "µM"}, {"measurement": "GI50", "setting": "SN12C renal", "value": 4.42, "unit": "µM"}, {"measurement": "TGI", "setting": "SN12C renal", "value": "> 100", "unit": "µM"}, {"measurement": "GI50", "setting": "U251 CNS", "value": 3.68, "unit": "µM"}, {"measurement": "TGI", "setting": "U251 CNS", "value": "> 100", "unit": "µM"}, {"measurement": "GI50", "setting": "OVCAR-3 ovarian", "value": 4.13, "unit": "µM"}, {"measurement": "TGI", "setting": "OVCAR-3 ovarian", "value": "> 100", "unit": "µM"}, {"measurement": "GI50", "setting": "SNB-19 CNS", "value": 4.62, "unit": "µM"}, {"measurement": "TGI", "setting": "SNB-19 CNS", "value": "> 100", "unit": "µM"}, {"measurement": "GI50", "setting": "PC-3 prostate", "value": 2.96, "unit": "µM"}, {"measurement": "TGI", "setting": "PC-3 prostate", "value": "> 100", "unit": "µM"}, {"measurement": "GI50", "setting": "UACC-257 melanoma", "value": 1.96, "unit": "µM"}, {"measurement": "TGI", "setting": "UACC-257 melanoma", "value": 3.57, "unit": "µM"}, {"measurement": "GI50", "setting": "A498 renal", "value": 2.31, "unit": "µM"}, {"measurement": "TGI", "setting": "A498 renal", "value": 8.37, "unit": "µM"}, {"measurement": "GI50", "setting": "SNB-75 CNS", "value": 6.65, "unit": "µM"}, {"measurement": "TGI", "setting": "SNB-75 CNS", "value": "> 100", "unit": "µM"}, {"measurement": "GI50", "setting": "DU-145 prostate", "value": 3.75, "unit": "µM"}, {"measurement": "TGI", "setting": "DU-145 prostate", "value": "> 100", "unit": "µM"}, {"measurement": "GI50", "setting": "SK-OV-3 ovarian", "value": 3.19, "unit": "µM"}, {"measurement": "TGI", "setting": "SK-OV-3 ovarian", "value": "> 100", "unit": "µM"}, {"measurement": "GI50", "setting": "BT-549 breast", "value": 5.14, "unit": "µM"}, {"measurement": "TGI", "setting": "BT-549 breast", "value": "> 100", "unit": "µM"}, {"measurement": "GI50", "setting": "NCI/ADR-RES ovarian", "value": 4.68, "unit": "µM"}, {"measurement": "TGI", "setting": "NCI/ADR-RES ovarian", "value": "> 100", "unit": "µM"}, {"measurement": "GI50", "setting": "OVCAR-4 ovarian", "value": 8.47, "unit": "µM"}, {"measurement": "TGI", "setting": "OVCAR-4 ovarian", "value": 81.8, "unit": "µM"}, {"measurement": "GI50", "setting": "MCF7 breast", "value": 2.18, "unit": "µM"}, {"measurement": "TGI", "setting": "MCF7 breast", "value": "> 100", "unit": "µM"}, {"measurement": "GI50", "setting": "UACC-62 melanoma", "value": 1.85, "unit": "µM"}, {"measurement": "TGI", "setting": "UACC-62 melanoma", "value": 3.48, "unit": "µM"}, {"measurement": "GI50", "setting": "TK-10 renal", "value": 5.08, "unit": "µM"}, {"measurement": "TGI", "setting": "TK-10 renal", "value": "> 100", "unit": "µM"}, {"measurement": "GI50", "setting": "OVCAR-8 ovarian", "value": 7.16, "unit": "µM"}, {"measurement": "TGI", "setting": "OVCAR-8 ovarian", "value": "> 100", "unit": "µM"}, {"measurement": "GI50", "setting": "NCI-H226 lung", "value": 5.45, "unit": "µM"}, {"measurement": "TGI", "setting": "NCI-H226 lung", "value": "> 100", "unit": "µM"}, {"measurement": "GI50", "setting": "HS 578T breast", "value": 2.83, "unit": "µM"}, {"measurement": "TGI", "setting": "HS 578T breast", "value": "> 100", "unit": "µM"}, {"measurement": "GI50", "setting": "A549 NSCLC", "value": 4.08, "unit": "µM"}, {"measurement": "TGI", "setting": "A549 NSCLC", "value": "> 100", "unit": "µM"}, {"measurement": "GI50", "setting": "MALME-3M melanoma", "value": 1.78, "unit": "µM"}, {"measurement": "TGI", "setting": "MALME-3M melanoma", "value": 3.54, "unit": "µM"}]}
